Results reported in US10688047B2, “Physically and chemically stable oral suspensions of givinostat” (ITALFARMACO SPA, priority 2015, dated 2020).
Converted amounts (≈) assume the structure as drawn. Where two headings read alike, the source gives them in different places.

Legend:
[1] = Solubility of Givinostat (ITF2357) in water, buffers and aqueous vehicles; format: physicochemical
Description: Solubility of Givinostat was tested in aqueous vehicles at pH 6, containing Phosphate buffer. Tween 20 as wetting agent and either Sorbitol or Sucrose (40% w/v). To this aim, an amount of Givinostat sufficient to ensure saturation was mixed with 15 mL of each vehicle in separate vials. These vials were shaken at 25° C.±PC for at least 24 hours in order to obtain equilibrium. The saturated solution was then separated from the excess solid by filtration and Givinostat (ITF2357) was quantitated in the filtrate by UV-Vis spectrophotometric technique.
In table 4 solubility value determined on ITF 2357 saturated solution in different buffer at pH 4.5 are reported.
Solubility of ITF2357 determined in suspension vehicles having compositions as described in Example 1, thus containing Sorbitol at 40% w/v and Tartrate buffer, at different pH (pH range from 4 to 7 adjusted with Tartaric Acid or Sodium Hydroxide) are shown in Table 5.

[2] = Chemical stability of ITF2357 solutions (degradation on storage); format: physicochemical
Description: For example, solubility of ITF2357 in phosphate buffers at pH 2, 4.5, 6 and 8 is about 1.13-2.88-0.77 and 0.05 mg/mL respectively. Thus, it is technically possible to prepare aqueous solutions of ITF2357, having concentrations, e.g., between 0.02 and 0.3% w/v, intended for oral administration. However, because of the poor Givinostat solubility, large volume of an oral solution formulation would need to be administered to allow administration of effective drug doses and this pose patient compliance issues. […] In a preferred embodiment, the suspension according to the invention further comprising at least a buffering agent.

IL-1β = conditions: LPS-stimulated cultured human PBMCs; read-out: concentration reducing by 50% the release of intracellular interleukin IL-1β; cited from earlier work
interferon-γ (IFNγ) = conditions: LPS-stimulated cultured human PBMCs; read-out: concentration reducing by 50% the production of IFNγ; cited from earlier work
serum TNFα = conditions: mice, oral administration of 1.0 to 10 mg/kg; cited from earlier work
serum IFNγ = conditions: mice, oral administration of 1.0 to 10 mg/kg; cited from earlier work
[3] = Solubility of Givinostat (ITF2357) in water, buffers and aqueous vehicles; format: physicochemical; conditions: phosphate buffer
[4] = at 20° C.; cited from earlier work

`CCN(CC)Cc1ccc2cc(COC(=O)Nc3ccc(C(=O)NO)cc3)ccc2c1` [ITF2357, Givinostat] showed a solubility ([1]; acetate buffer, pH 4.5, aqueous buffer, thermodynamic from solid, Acetate buffer pH 4.5, read-out: ITF2357 solubility) of 5100 µg/mL (≈ 12100 µM), a solubility ([1]; aqueous vehicle, 25 °C, pH 6, aqueous with cosolvent or surfactant or cyclodextrin, thermodynamic from solid, Phosphate buffer pH 6, Tween 20, Sorbitol 10% (w/v), 25° C., read-out: ITF2357 Solubility) of 2340 µg/mL (≈ 5550 µM) and a solubility ([1]; aqueous vehicle, 25 °C, pH 6, aqueous with cosolvent or surfactant or cyclodextrin, thermodynamic from solid, Phosphate buffer pH 6, Tween 20, Sorbitol 20% (w/v), 25° C., read-out: ITF2357 Solubility) of 2110 µg/mL (≈ 5000 µM). It also gave a solubility ([1]; aqueous vehicle, 25 °C, pH 6, aqueous with cosolvent or surfactant or cyclodextrin, thermodynamic from solid, Phosphate buffer pH 6, Tween 20, Sorbitol 30% (w/v), 25° C., read-out: ITF2357 Solubility) of 2020 µg/mL (≈ 4790 µM), a solubility ([1]; aqueous vehicle, 25 °C, pH 6, aqueous with cosolvent or surfactant or cyclodextrin, thermodynamic from solid, Phosphate buffer pH 6, Tween 20, Sorbitol 40% (w/v), 25° C., read-out: ITF2357 Solubility) of 1930 µg/mL (≈ 4580 µM) and a solubility ([1]; aqueous vehicle, 25 °C, pH 6, aqueous with cosolvent or surfactant or cyclodextrin, thermodynamic from solid, Phosphate buffer pH 6, Tween 20, Sucrose 40% (w/v), 25° C., read-out: ITF2357 Solubility) of 3880 µg/mL (≈ 9190 µM). It also gave a solubility ([1]; phosphate buffer pH 4.5) of 2880 µg/mL (≈ 6830 µM), a solubility ([1]; phosphate buffer, pH 4.5, aqueous buffer, thermodynamic from solid, phosphate buffer pH 4.5, read-out: solubility) of roughly 2880 µg/mL (≈ 6830 µM) and a solubility ([1]; phosphate buffer, pH 8, aqueous buffer, phosphate buffer pH 8, read-out: solubility) of roughly 50 µg/mL (≈ 119 µM). For the same molecule, the solubility ([1]; purified water, water, purified water, read-out: solubility) was roughly 2500 µg/mL (≈ 5930 µM), the solubility ([1]; suspension vehicle, pH 4, aqueous with cosolvent or surfactant or cyclodextrin, thermodynamic from solid, Tartrate buffer pH = 4.0, Tween 20, Sorbitol 40% w/v, read-out: ITF2357 solubility) was 210 µg/mL (≈ 498 µM) and the solubility ([1]; suspension vehicle, pH 5, aqueous with cosolvent or surfactant or cyclodextrin, thermodynamic from solid, Tartrate buffer pH = 5.0, Tween 20, Sorbitol 40% w/v, read-out: ITF2357 solubility) was 150 µg/mL (≈ 356 µM). It also gave a solubility ([1]; suspension vehicle, pH 5.5, aqueous with cosolvent or surfactant or cyclodextrin, thermodynamic from solid, Tartrate buffer pH = 5.5, Tween 20, Sorbitol 40% w/v, read-out: ITF2357 solubility) of 160 µg/mL (≈ 380 µM), a solubility ([1]; suspension vehicle, pH 6, aqueous with cosolvent or surfactant or cyclodextrin, thermodynamic from solid, Tartrate buffer pH = 6.0, Tween 20, Sorbitol 40% w/v, read-out: ITF2357 solubility) of 150 µg/mL (≈ 356 µM) and a solubility ([1]; suspension vehicle, pH 6.5, aqueous with cosolvent or surfactant or cyclodextrin, thermodynamic from solid, Tartrate buffer pH = 6.5, Tween 20, Sorbitol 40% w/v, read-out: ITF2357 solubility) of 160 µg/mL (≈ 380 µM). For the same molecule, the solubility ([1]; suspension vehicle, pH 7, aqueous with cosolvent or surfactant or cyclodextrin, thermodynamic from solid, Tartrate buffer pH = 7.0, Tween 20, Sorbitol 40% w/v, read-out: ITF2357 solubility) was 150 µg/mL (≈ 356 µM), the solubility ([1]; tartrate buffer, pH 4.5, aqueous buffer, thermodynamic from solid, Tartrate buffer pH 4.5, read-out: ITF2357 solubility) was 230 µg/mL (≈ 546 µM) and the degradation of solution ([2]; phosphate buffer pH 2, 6 days at 40° C.) was “about 6.3%”. It also gave a degradation of solution ([2]; phosphate buffer pH 4.5, 6 days at 40° C.) of roughly 0.8%, a degradation of solution ([2]; phosphate buffer pH 6, 6 days at 40° C.) of roughly 0.5% and a degradation of solution ([2]; phosphate buffer pH 8, 6 days at 40° C.) of roughly 2.1%. For the same molecule, the IC50 (IL-1β) was 12 nM, the IC50 (interferon-γ (IFNγ)) was 25 nM and the “reduction of LPS-induced serum TNFα” value (serum TNFα) was “more than 50%”. The “reduction of LPS-induced serum IFNγ” value (serum IFNγ) was “more than 50%”, the solubility ([3]; pH 2, aqueous buffer, phosphate buffer pH 2) was roughly 1130 µg/mL (≈ 2680 µM) and the solubility ([3]; pH 6, aqueous buffer, phosphate buffer pH 6) was roughly 770 µg/mL (≈ 1830 µM).
In the case of `OC[C@H]1O[C@@](CO)(O[C@H]2O[C@H](CO)[C@@H](O)[C@H](O)[C@H]2O)[C@@H](O)[C@@H]1O` [Sucrose], the “parts of water in which 1 part dissolves” value [4] is listed as 0.3 parts of water.
